Measurements: patent US8916559B2, “Crystalline compound of 7-[(3R)-3-amino-1-oxo-4-(2, 4, 5-trifluorophenyl)butyl]-5, 6, 7, 8-tetrahydro-3-(tri fluoromethyl)-1, 2, 4 -triazolo[4,3-A]pyrazin” (Sandoz AG, priority 2009, dated 2014)
Counter-ions that a name gives are not always drawn.

Key:
[1] = hydrochloride of WO 03/004498 A1; cited from earlier work
[2] = Dynamic water vapor sorption measurements (hygroscopicity); format: physicochemical; conditions: for H2O content at 50% r.h. / H2O content at 90% r.h.: dynamic water vapor sorption; for H2O content at 90% r.h.: 90% relative humidity; for hygroscopic behaviour (water adsorption, in words): identical measurement conditions, high relative humidities
Source text: Amorphous or mesomorphous forms of a compound can have a very much stronger tendency toward hygroscopicity than crystalline forms. The sitagliptin fumarate compounds described here are characterized in that they have good hygroscopic properties, i.e. absorb little water at high relative humidity. This is evident from table 1 below, which compares the water contents of the crystalline fumarate form A and crystalline hydrochloride at 50% and 90% relative humidity. The data originate from dynamic water vapor adsorption measurements. The water vapor sorption measurement is a suitable method for investigating the hygroscopic properties of solid substances. Water vapor sorption measurements can be carried out in different ways. In general, in this connection, a small sample of ca. 10-30 mg is introduced into a microbalance in a suitable sample carrier. The sample is then exposed to different relative humidities in accordance with a defined program, the change in the sample mass being simultaneously recorded over the time. As a result, insights into the hygroscopic behavior of a substance can be obtained.
Dynamic water vapor adsorption measurements were carried out using an SPS11-100n instrument, manufactured by “Projekt Messtechnik” in Ulm, Germany. For this, ca. 20 mg of the sample were weighed into an aluminum support and this was inserted into the measurement chamber of the instrument. The sample was then subjected to preselected relative humidities in accordance with a defined program, the change in mass being determined over the time. The following measurement program was used: 50% r.h. constant for two hours, then changing the relative humidity to 0% r.h., then changing the relative humidity to 96% r.h., constant at 96% r.h. for four hours and then changing the relative humidity to 50% r.h. and then constant at 50% r.h. for one hour. The change rates set were in each case 5% per hour.

[3] = at temperatures above 40° C.; hydrate of WO 2005/003135; cited from earlier work

## N[C@@H](CC(=O)N1CCn2c(nnc2C(F)(F)F)C1)Cc1cc(F)c(F)cc1F [sitagliptin hydrochloride]
[1]
  hygroscopicity (in words): hygroscopic
[2]; 50% relative humidity, hydrochloride
  H2O content at 50% r.h.: >2.7%^
[2]; hydrochloride
  H2O content at 90% r.h.: >3.6%^
[2]; listed as crystalline sitagliptin hydrochloride monohydrate, hydrochloride
  hygroscopic behaviour (water adsorption, in words): adsorbs significantly more water

## N[C@@H](CC(=O)N1CCn2c(nnc2C(F)(F)F)C1)Cc1cc(F)c(F)cc1F [form A, 7-[(3R)-3-amino-1-oxo-4-(2,4,5-trifluorophenyl)butyl]-5,6,7,8-tetrahydro-3-(trifluoromethyl)-1,2,4-triazolo[4,3-a]pyrazine]
[2]; 50% relative humidity
  water content at 50% relative humidity: ca. 0.3%
[2]; 50% relative humidity, listed as Crystalline sitagliptin fumarate form A
  H2O content at 50% r.h.: 0.25%
[2]; listed as Crystalline sitagliptin fumarate form A
  H2O content at 90% r.h.: 1.33%
[2]; after four hours at 96% relative humidity
  additional water absorbed compared with 50% relative humidity: ca. 1%
[2]
  hygroscopic behaviour (water adsorption, in words): absorbs only a small amount of water

## N[C@@H](CC(=O)N1CCn2c(nnc2C(F)(F)F)C1)Cc1cc(F)c(F)cc1F.O=P(O)(O)O [sitagliptin dihydrogenphosphate salt]
[3]
  phase stability (in words): phase-unstable
